Results from patent US20050197350A1, “Novel quinoline, tetrahydroquinazoline, and pyrimidine derivatives and methods of treatment related to the use thereof” (TAISHO PHARMACEUTICAL CO., LTD., priority 2003, published 2005).
Counter-ions that a name gives are not always drawn.

What follows are molecules tested against MCH receptor (Homo sapiens, UniProt Q99705) (assay: High throughput functional screening FLIPR/FDSS6000 (intracellular Ca2+ evoked by MCH)). Settings: FLIPR/FDSS, antagonist activity vs 50 nM MCH; class by percent of control at 10^−7 M or IC50; table after the classification; read-out: class.
Type: cell-based
Summary of the method: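 For antagonist testing, compound-treated cells (30 min, 37 °C) were stimulated with 50 nM MCH and intracellular Ca2+ followed by Fluo4 fluorescence on FLIPR/FDSS6000. Receptor was a constitutively active, non-endogenous MCH receptor; dye loading 4 μM Fluo4-AM, 1 h, 37 °C.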
For `CN(C)c1ccnc(N[C@H]2CC[C@@H](NC(=O)c3ccc(Cl)c(F)c3)CC2)n1` [Example 3207, 4-Chloro-N-[cis-4-(4-dimethylamino-pyrimidin-2-ylamino)-cyclohexyl]-3-fluoro-benzamide hydrochloride], the IC50 was less than 50 nM. Work on `CN(C)c1ccnc(N[C@H]2CC[C@@H](NC(=O)c3ccccn3)CC2)n1` [Example 3208, Pyridine-2-carboxylic acid [cis-4-(4-dimethylamino-pyrimidin-2-ylamino)-cyclohexyl]-amide hydrochloride] yielded an IC50 greater than 200 nM. `CN(C)c1ccnc(N[C@H]2CC[C@@H](NC(=O)c3cccnc3)CC2)n1` [Example 3209, N-[cis-4-(4-Dimethylamino-pyrimidin-2-ylamino)-cyclohexyl]-nicotinamide dihydrochloride] gave an IC50 greater than 200 nM. `CN(C)c1ccnc(N[C@H]2CC[C@@H](NC(=O)c3ccncc3)CC2)n1` [Example 3210, N-[cis-4-(4-Dimethylamino-pyrimidin-2-ylamino)-cyclohexyl]-isonicotinamide dihydrochloride] showed an IC50 greater than 200 nM. With `CN(C)c1ccnc(N[C@H]2CC[C@@H](NC(=O)c3cncc(Br)c3)CC2)n1` [Example 3211, 5-Bromo-N-[cis-4-(4-dimethylamino-pyrimidin-2-ylamino)-cyclohexyl]-nicotinamide hydrochloride] the IC50 was less than 50 nM. `CN(C)c1ccnc(N[C@H]2CC[C@@H](NC(=O)c3ccc(C(F)(F)F)nc3)CC2)n1` [Example 3212, N-[cis-4-(4-Dimethylamino-pyrimidin-2-ylamino)-cyclohexyl]-6-trifluoromethyl-nicotinamide hydrochloride] gave an IC50 greater than 200 nM. `CN(C)c1ccnc(N[C@H]2CC[C@@H](NC(=O)c3cc(Cl)ccn3)CC2)n1` [Example 3213, 4-Chloro-pyridine-2-carboxylic acid [cis-4-(4-dimethylamino-pyrimidin-2-ylamino)-cyclohexyl]-amide hydrochloride] showed an IC50 greater than 200 nM. Molecule `CN(C)c1ccnc(N[C@H]2CC[C@@H](NC(=O)c3ccc(F)cc3)CC2)n1` [Example 3214, N-[cis-4-(4-Dimethylamino-pyrimidin-2-ylamino)-cyclohexyl]-4-fluoro-benzamide hydrochloride] has an IC50 of 50 to 200 nM. `CN(C)c1ccnc(N[C@H]2CC[C@@H](NC(=O)c3cc(F)cc(Cl)c3)CC2)n1` [Example 3215, 3-Chloro-N-cis-4-(4-dimethylamino-pyrimidin-2-ylamino)-cyclohexyl]-5-fluoro-benzamide hydrochloride] showed an IC50 of 50 to 200 nM. For `CN(C)c1ccnc(N[C@H]2CC[C@@H](NC(=O)c3cc(F)c(F)c(F)c3)CC2)n1` [Example 3216, N-[cis-4-(4-Dimethylamino-pyrimidin-2-ylamino)-cyclohexyl]-3,4,5-trifluoro-benzamide hydrochloride], the IC50 was less than 50 nM. Work on `CN(C)c1ccnc(N[C@H]2CC[C@@H](NC(=O)c3cc(C(C)(C)C)c(O)c(C(C)(C)C)c3)CC2)n1` [Example 3217, 3,5-Di-tert-butyl-N-[cis-4-(4-dimethylamino-pyrimidin-2-ylamino)-cyclohexyl]-4-hydroxy-benzamide hydrochloride] yielded an IC50 of less than 50 nM. In the case of `CN(C)c1ccnc(N[C@H]2CC[C@@H](NC(=O)Nc3cccc(Cl)c3Cl)CC2)n1` [Example 3218, 1-(2,3-Dichloro-phenyl)-3-[cis-4-(4-dimethylamino-pyrimidin-2-ylamino)-cyclohexyl]-urea hydrochloride], the IC50 is reported as greater than 200 nM. Work on `CN(C)c1ccnc(N[C@H]2CC[C@@H](CNC(=O)c3ccc(F)c(F)c3)CC2)n1` [Example 3219, N-[cis-4-(4-Dimethylamino-pyrimidin-2-ylamino)-cyclohexylmethyl]-3,4-difluoro-benzamide hydrochloride] yielded an IC50 of 50 to 200 nM. In the case of `CN(C)c1ccnc(N[C@H]2CC[C@@H](CNC(=O)Cc3c(Cl)ccc(Cl)c3Cl)CC2)n1` [Example 3220, N-[cis-4-(4-Dimethylamino-pyrimidin-2-ylamino)-cyclohexylmethyl]-2-(2,3,6-trichloro-phenyl)-acetamide hydrochloride], the IC50 is reported as less than 50 nM. In the case of `CN(C)c1ccnc(N[C@H]2CC[C@@H](CNC(=O)C3c4ccccc4Oc4ccccc43)CC2)n1` [Example 3221, 9H-Xanthene-9-carboxylic acid [cis-4-(4-dimethylamino-pyrimidin-2-ylamino)-cyclohexylmethyl]-amide hydrochloride], the IC50 is reported as less than 50 nM. With `CN(C)c1ccnc(N[C@H]2CC[C@@H](CNC(=O)Nc3cccc(Cl)c3Cl)CC2)n1` [Example 3222, 1-(2,3-Dichloro-phenyl)-3-[cis-4-(4-dimethylamino-pyrimidin-2-ylamino)-cyclohexylmethyl]-urea hydrochloride] the IC50 was less than 50 nM. Molecule `CNc1ccnc(N[C@H]2CC[C@@H](NC(=O)c3ccc(F)c(F)c3)CC2)n1` [Example 3223, 3,4-Difluoro-N-[cis-4-(4-methylamino-pyrimidin-2-ylamino)-cyclohexyl]-benzamide-hydrochloride] has an IC50 greater than 200 nM. With `CNc1ccnc(N[C@H]2CC[C@@H](NC(=O)c3ccc(F)c(Cl)c3)CC2)n1` [Example 3224, 3-Chloro-4-fluoro-N-[cis-4-(4-methylamino-pyrimidin-2-ylamino)-cyclohexyl]-benzamide hydrochloride] the IC50 was 50 to 200 nM. Work on `CCNc1ccnc(N[C@H]2CC[C@@H](NC(=O)c3ccc(F)c(F)c3)CC2)n1` [Example 3225, N-[cis-4-(4-Ethylamino-pyrimidin-2-ylamino)-cyclohexyl]-3,4-difluoro-benzamide hydrochloride] yielded an IC50 greater than 200 nM. In the case of `CCN(C)c1ccnc(N[C@H]2CC[C@@H](NC(=O)c3ccc(F)c(F)c3)CC2)n1` [Example 3226, N-{cis-4-[4-(Ethyl-methyl-amino)-pyrimidin-2-ylamino]-cyclohexyl}-3,4-difluoro-benzamide hydrochloride], the IC50 is reported as greater than 200 nM. `CN(CCO)c1ccnc(N[C@H]2CC[C@@H](NC(=O)c3ccc(F)c(F)c3)CC2)n1` [Example 3227, 3,4-Difluoro-N-(cis-4-{4-[(2-hydroxy-ethyl)-methyl-amino]-pyrimidin-2-ylamino}-cyclohexyl)-benzamide hydrochloride] showed an IC50 greater than 200 nM. `Cc1cnc(N[C@H]2CC[C@@H](NC(=O)c3ccc(F)c(Cl)c3)CC2)nc1N(C)C` [Example 3228, 3-Chloro-N-[cis-4-(4-dimethylamino-5-methyl-pyrimidin-2-ylamino)-cyclohexyl]-4-fluoro-benzamide hydrochloride] was tested, and the IC50 was less than 50 nM. Molecule `CN(C)c1nc(N[C@H]2CC[C@@H](NC(=O)c3ccc(F)c(Cl)c3)CC2)ncc1F` [Example 3229, 3-Chloro-N-[cis-4-(4-dimethylamino-5-fluoro-pyrimidin-2-ylamino)-cyclohexyl]-4-fluoro-benzamide hydrochloride] has an IC50 of less than 50 nM. For `Cc1cc(N(C)C)nc(N[C@H]2CC[C@@H](NC(=O)c3ccc(F)c(Cl)c3)CC2)n1` [Example 3230, 3-Chloro-N-[cis-4-(4-dimethylamino-6-methyl-pyrimidin-2-ylamino)-cyclohexyl]-4-fluoro-benzamide hydrochloride], the IC50 was less than 50 nM. `CCc1cc(N(C)C)nc(N[C@H]2CC[C@@H](NC(=O)c3ccc(F)c(F)c3)CC2)n1` [Example 3231, N-[cis-4-(4-Dimethylamino-6-ethyl-pyrimidin-2-ylamino)-cyclohexyl]-3,4-difluoro-benzamide hydrochloride] was tested, and the IC50 was 50 to 200 nM. With `CN(C)c1cc(N(C)C)nc(N[C@H]2CC[C@@H](NC(=O)c3ccc(F)c(F)c3)CC2)n1` [Example 3232, N-[cis-4-(4,6-Bis-dimethylamino-pyrimidin-2-ylamino)-cyclohexyl]-3,4-difluoro-benzamide hydrochloride] the IC50 was 50 to 200 nM. `CN(C)c1cc(Cl)nc(N[C@H]2CC[C@@H](NC(=O)c3cccnc3Oc3ccccc3)CC2)n1` [Example 3233, N-[cis-4-(6-Chloro-4-dimethylamino-pyrimidin-2-ylamino)-cyclohexyl]-2-phenoxy-nicotinamide hydrochloride] showed an IC50 greater than 200 nM. Work on `CN(C)c1cc(Cl)nc(N[C@H]2CC[C@@H](NC(=O)c3ccc(F)c(F)c3)CC2)n1` [Example 3234, N-[cis-4-(6-Chloro-4-dimethylamino-pyrimidin-2-ylamino)-cyclohexyl]-3,4-difluoro-benzamide hydrochloride] yielded an IC50 greater than 200 nM. `Nc1cc(N[C@H]2CC[C@@H](NC(=O)c3ccc(F)c(F)c3)CC2)nc2ccccc12` [Example 3235, N-[cis-4-(4-Amino-quinolin-2-ylamino)-cyclohexyl]-3,4-difluoro-benzamide hydrochloride] was tested, and the IC50 was less than 50 nM. `NC(=O)c1cc(N[C@H]2CC[C@@H](NC(=O)c3ccc(F)c(F)c3)CC2)nc2ccccc12` [Example 3236, 2-(cis-4-{[1-(3,4-Difluoro-phenyl)-methanoyl]-amino}-cyclohexylamino)-quinoline-4-carboxylic acid amide] was tested, and the IC50 was greater than 200 nM. Work on `O=C(N[C@H]1CC[C@@H](Nc2cc(C(F)(F)F)c3ccccc3n2)CC1)c1ccc(F)c(F)c1` [Example 3237, 3,4-Difluoro-N-[cis-4-(4-trifluoromethyl-quinolin-2-yl)-amino-cyclohexyl]-benzamide hydrochloride] yielded an IC50 greater than 200 nM. `Cc1cc(N[C@H]2CC[C@@H](NC(=O)c3ccc(F)c(F)c3)CC2)nc2ccccc12` [Example 3238, 3,4-Difluoro-N-[cis-4-(4-methyl-quinolin-2-ylamino)-cyclohexyl]-benzamide methanesulfonic acid] was tested, and the IC50 was less than 50 nM. In the case of `Cc1cc(N[C@H]2CC[C@@H](NC(=O)c3ccc(F)c(Cl)c3)CC2)nc2ccccc12` [Example 3239, 3-Chloro-4-fluoro-N-[cis-4-(4-methyl-quinolin-2-ylamino)-cyclohexyl]-benzamide methanesulfonic acid], the IC50 is reported as less than 50 nM. `COc1cccc(C(=O)N[C@H]2CC[C@@H](Nc3ccc4ccccc4n3)CC2)c1` [Example 3240, 3-Methoxy-N-[cis-4-(quinolin-2-ylamino)-cyclohexyl]-benzamide methanesulfonic acid] gave an IC50 of less than 50 nM.
